The results in this text go back to PMC10587126, “Molecular hybridization strategy for tuning bioactive peptide function” (Communications Biology, 2023).

Data set [1] is described as follows: Resistance to proteolytic degradation in fetal bovine serum. Type of data set: in vitro ADME. The conditions noted are these: 25% fetal bovine serum in water, 37 °C. Here is the method: Stability assays were performed following the protocol described by Torres et al.[67]. Briefly, a peptide solution was added to GIBCO fetal bovine serum diluted to 25% in water and kept at 37 °C. The degradation kinetics were monitored by liquid chromatography and the percentage of peptide remaining in each case was calculated by integrating the peptide peak area. These experiments were performed as three independent replicates, and aliquots were taken at 0, 0.5, 1, 2, 4, and 6 h.

The test system of data set [2] is human erythrocytes. Kind of data set: Hemolytic activity. The settings on record: 0.1–100 μmol L^−1 in PBS, room temperature, 1 h, absorbance 405 nm. Type of data set: cell-based. How it is done:
Assays against freshly collected human erythrocytes were performed following protocols described by Pedron et al.[54]. Briefly, peptide aliquots at concentrations ranging from 0.1 to 100 μmol L^−1 were incubated with a suspension of erythrocytes at room temperature for 1 h. The samples were then centrifuged, and the absorbance of the supernatant was measured at 405 nm. […] The surfactant SDS and PBS buffer were used as positive[81],[82] and negative controls, respectively. Sodium heparin was used as an anticoagulant when collecting human blood. Three biological repeats were performed. All experiments were performed in accordance with the protocol CEUA/IB #I-1345/15 approved by the Instituto Butantan.

The nature of data set [3]: Mouse body weight in the skin abscess infection model. It counts as in vivo. How it is done:
The anti-infective activity of the peptides VmCT1, temporin A, VT, and TV against A. baumannii ATCC 19606 was evaluated as described by Torres et al.[7],[83] Bacteria were grown in tryptic soy broth medium to an optical density of 0.5 at 600 nm. Cells were washed twice with sterile phosphate-buffered saline (pH 7.4, 13,000 rpm for 1 min) and resuspended to a final concentration of 1 × 10^7 CFU/20 μL. To generate the skin infection, female CD-1 mice (6-weeks-old) were first anesthetized with isoflurane and their backs were shaved. Using a needle, a superficial linear abrasion was made on the shaved area of the mice to injure just the stratum corneum and the upper layer of the epidermis. An aliquot of 20 μL containing 1 × 10^7 CFU of A. baumannii was then inoculated over the wound area with a pipette tip. The next day, the infected area was treated with the peptides (i.e., VmCT1, temporin A, VT, and TV), which were administered onto the abscess at their MIC. The animals were euthanized, and the scarified skin area removed 2- and 4-days post-infection. The excised area was homogenized using a bead beater for 20 min (25 Hz) and serially diluted for CFU quantification. Eight mice were used per group (n = 8). All experiments were performed in accordance with protocol 806763 approved by the IACUC at the University of Pennsylvania.

[4] abbreviates: LC peak area, time 0 = 100, 0.5 h, replicate 1.
Where [5] appears, read: LC peak area, time 0 = 100, 0.5 h, replicate 2.
Setting [6] is: LC peak area, time 0 = 100, 0.5 h, replicate 3.
Setting [7] is: LC peak area, time 0 = 100, 1 h, replicate 1.
The mark [8] stands for this setting: LC peak area, time 0 = 100, 1 h, replicate 2.
Setting [9] is: LC peak area, time 0 = 100, 1 h, replicate 3.
[10] abbreviates: LC peak area, time 0 = 100, 2 h, replicate 1.
The mark [11] stands for this setting: LC peak area, time 0 = 100, 2 h, replicate 2.
[12] abbreviates: LC peak area, time 0 = 100, 2 h, replicate 3.
Where [13] appears, read: LC peak area, time 0 = 100, 4 h, replicate 1.
[14] abbreviates: LC peak area, time 0 = 100, 4 h, replicate 2.
The mark [15] stands for this setting: LC peak area, time 0 = 100, 4 h, replicate 3.
Where [16] appears, read: LC peak area, time 0 = 100, 6 h, replicate 1.
Where [17] appears, read: LC peak area, time 0 = 100, 6 h, replicate 2.
[18] abbreviates: LC peak area, time 0 = 100, 6 h, replicate 3.

No end group written: not given here.

For FLGSLWRKAGTVF-NH2 [VD], the Peptide remaining in data set [1] (setting [4]) is 33.7; in data set [1] (setting [5]), 43.8; in data set [1] (setting [6]) it was 94.3; in data set [1] (setting [7]), 66.3; in data set [1] (setting [8]) it was 77.3; in data set [1] (setting [9]) it was 49.4. The Peptide remaining in data set [1] (setting [10]) is recorded as 38.2; in data set [1] (setting [11]), 88.5; in data set [1] (setting [12]), 63.8; in data set [1] (setting [13]), 66.4; in data set [1] (setting [14]) it was 45.3; in data set [1] (setting [15]), 44.7. Moreover, the values for the Peptide remaining in data set [1] (setting [16]), in data set [1] (setting [17]) and in data set [1] (setting [18]) were 56.9, 59.8 and 0.0, respectively. The “Hemolytic activity (concentration of peptide needed to kill 10% of red blood cells)” value in data set [2] was “no hemolytic activity was detected”.

Turning to FLPLLWRVASGVF-NH2 [VT], the “Mouse body weight, normalized to the weight at the beginning of the experiment” value in data set [3] (day 0 = 100, Day 1, replicate 1) amounted to 95; in data set [3] (day 0 = 100, Day 1, replicate 2), 100; in data set [3] (day 0 = 100, Day 1, replicate 3), 100; in data set [3] (day 0 = 100, Day 2, replicate 1), 90; in data set [3] (day 0 = 100, Day 2, replicate 2), 105; in data set [3] (day 0 = 100, Day 2, replicate 3), 100. Also, the “Mouse body weight, normalized to the weight at the beginning of the experiment” value amounted to 90 in data set [3] (day 0 = 100, Day 3, replicate 1); 100 in data set [3] (day 0 = 100, Day 3, replicate 2); 95 in data set [3] (day 0 = 100, Day 3, replicate 3); 95 in data set [3] (day 0 = 100, Day 4, replicate 1); 100 in data set [3] (day 0 = 100, Day 4, replicate 2); 95 in data set [3] (day 0 = 100, Day 4, replicate 3). Also, in data set [1] (LC peak area vs time 0, 30 min, three replicates), the “Peptide remaining after 30 min” value is “totally degraded”. Besides, the Peptide remaining in data set [1] (setting [4]), in data set [1] (setting [5]), in data set [1] (setting [6]), in data set [1] (setting [8]), in data set [1] (setting [9]) and in data set [1] (setting [10]) was 0 each time. The Peptide remaining in data set [1] (setting [11]), in data set [1] (setting [12]), in data set [1] (setting [13]), in data set [1] (setting [14]), in data set [1] (setting [15]) and in data set [1] (setting [16]) was 0 throughout. The Peptide remaining in data set [1] (setting [17]) and in data set [1] (setting [18]) was 0 each time. Besides, in data set [1] (fetal bovine serum, 25% in water, LC peak area, time 0 = 100, 1 h, replicate 1, read-out: Peptide remaining), the amount remaining at 1 h amounted to 0%. Moreover, the “Hemolytic activity (concentration of peptide needed to kill 10% of red blood cells)” value in data set [2] was 0.2 µmol/L.

For the substance GLGALLNVIKSGL-NH2 [AV], the Peptide remaining came out at 31.1 in data set [1] (setting [4]); 34.0 in data set [1] (setting [5]); 0.0 in data set [1] (setting [6]); 27.7 in data set [1] (setting [7]); 32.8 in data set [1] (setting [8]); 0.0 in data set [1] (setting [9]). Besides, the Peptide remaining stood at 39.7 in data set [1] (setting [10]); 49.0 in data set [1] (setting [11]); 0.0 in data set [1] (setting [12]); 26.2 in data set [1] (setting [13]); 41.8 in data set [1] (setting [14]); 0.0 in data set [1] (setting [15]). The Peptide remaining in data set [1] (setting [16]), in data set [1] (setting [17]) and in data set [1] (setting [18]) was 0.0 throughout. For the same substance, in data set [2], the “Hemolytic activity (concentration of peptide needed to kill 10% of red blood cells)” value came to 100 µmol/L.

On to “GLLKRIKTLL-NH2 [Anoplin, reference compound]”, for which the Peptide remaining in data set [1] (setting [4]) is given as 22.7; in data set [1] (setting [5]), 28.8; in data set [1] (setting [6]), 20.2; in data set [1] (setting [7]), 20.4; in data set [1] (setting [8]), 17.5; in data set [1] (setting [9]) it was 19.1. Moreover, the Peptide remaining in data set [1] (setting [10]) came out at 14.2; in data set [1] (setting [11]), 14.0; in data set [1] (setting [12]), 0.0; in data set [1] (setting [13]), 0.0; in data set [1] (setting [14]), 0.0; in data set [1] (setting [15]), 0.0. Further, the Peptide remaining in data set [1] (setting [16]), in data set [1] (setting [17]) and in data set [1] (setting [18]) was 0.0 in each case. For the same substance, in data set [1] (fetal bovine serum, 25% in water, LC peak area vs time 0, 30 min, three replicates, read-out: Peptide remaining after 30 min), the amount remaining at 0.5 h is < 50%. For the same substance, the “Hemolytic activity (concentration of peptide needed to kill 10% of red blood cells)” value in data set [2] was 50 µmol/L.

Turning to SLGALINVLKSGG-NH2 [DV], the Peptide remaining is listed as 13.4 in data set [1] (setting [4]); 10.6 in data set [1] (setting [5]); 0.0 in data set [1] (setting [6]); 0.0 in data set [1] (setting [7]); 0.0 in data set [1] (setting [8]); 0.0 in data set [1] (setting [9]). The Peptide remaining in data set [1] (setting [10]), in data set [1] (setting [11]), in data set [1] (setting [12]), in data set [1] (setting [13]), in data set [1] (setting [14]) and in data set [1] (setting [15]) was 0.0 in each case. The Peptide remaining in data set [1] (setting [16]), in data set [1] (setting [17]) and in data set [1] (setting [18]) was 0.0 in each case. Besides, in data set [2], the “Hemolytic activity (concentration of peptide needed to kill 10% of red blood cells)” value was 0.1 µmol/L.

In general, fraction remaining refers to the share of the starting amount still present when the sample was taken.
